Target: T1, bfAANATα (Branchiostoma floridae, UniProt B9TUB5)
T1 construct: gene AANATalpha; full-length cDNA clone from B. floridae head, GST fusion (pGEX 4T-1), E. coli BL21Gold(DE3) pLysS
T1 sequence (B9TUB5 1-247): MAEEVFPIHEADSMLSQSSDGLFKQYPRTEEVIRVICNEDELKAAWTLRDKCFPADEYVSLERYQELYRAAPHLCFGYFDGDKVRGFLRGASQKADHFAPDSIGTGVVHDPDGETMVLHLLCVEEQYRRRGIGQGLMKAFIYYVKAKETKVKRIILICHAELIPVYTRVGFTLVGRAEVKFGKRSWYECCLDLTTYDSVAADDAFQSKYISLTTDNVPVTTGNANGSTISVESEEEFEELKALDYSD
Experiment: acetyltransferase activity assay, recombinant GST fusion; also displaces CoA-HNE
Type: biochemical

CC(C)(CO[P@@](=O)(O)O[P@@](=O)(O)OC[C@H]1O[C@@H](n2cnc3c(N)ncnc32)[C@H](O)[C@@H]1OP(=O)(O)O)[C@@H](O)C(=O)NCCC(=O)NCCSCC(=O)NCCc1c[nH]c2ccccc12 [CoA-T]
IC50: 3 µM
